Measured values as given in PubChem BioAssay (NCI).
“And” between values parts separate entries of the source, which are not always exact repeats. Identical values can stand only once.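 Exposure lasted 48 hours, with cells grown in 96-well plates and compounds tested at five concentrations. Here, GI50 denotes the concentration required for 50% inhibition of growth. Definition used: TGI = concentration required for complete inhibition of growth.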

What was measured:
Test in all cases: growth of human tumour cells (NCI), 48 h
A549 NSCLC = test system: A549 NSCLC
MCF7 breast = test system: MCF7 breast
SW-620 colon = test system: SW-620 colon
CAKI-1 renal = test system: CAKI-1 renal
RPMI-8226 leukemia = test system: RPMI-8226 leukemia
LOX IMVI melanoma = test system: LOX IMVI melanoma
HOP-62 NSCLC = test system: HOP-62 NSCLC
DU-145 prostate = test system: DU-145 prostate
MDA-MB-231 breast = test system: MDA-MB-231 breast
CCRF-CEM leukemia = test system: CCRF-CEM leukemia
NCI-H522 lung = test system: NCI-H522 lung
HOP-92 NSCLC = test system: HOP-92 NSCLC
MOLT-4 leukemia = test system: MOLT-4 leukemia
COLO 205 colon = test system: COLO 205 colon
HS 578T breast = test system: HS 578T breast
OVCAR-4 ovarian = test system: OVCAR-4 ovarian
SK-MEL-5 melanoma = test system: SK-MEL-5 melanoma
MALME-3M melanoma = test system: MALME-3M melanoma
ACHN renal = test system: ACHN renal
NCI/ADR-RES ovarian = test system: NCI/ADR-RES ovarian
NCI-H460 lung = test system: NCI-H460 lung
OVCAR-5 ovarian = test system: OVCAR-5 ovarian
HL-60(TB) leukemia = test system: HL-60(TB) leukemia
M14 melanoma = test system: M14 melanoma
HCT-15 colon = test system: HCT-15 colon
SF-539 CNS = test system: SF-539 CNS
U251 CNS = test system: U251 CNS
PC-3 prostate = test system: PC-3 prostate
SF-295 CNS = test system: SF-295 CNS
NCI-H23 lung = test system: NCI-H23 lung
MDA-N = test system: MDA-N
TK-10 renal = test system: TK-10 renal
EKVX NSCLC = test system: EKVX NSCLC
OVCAR-3 ovarian = test system: OVCAR-3 ovarian
SR leukemia = test system: SR leukemia
SK-OV-3 ovarian = test system: SK-OV-3 ovarian
RXF 393 renal = test system: RXF 393 renal
SNB-75 CNS = test system: SNB-75 CNS
SNB-19 CNS = test system: SNB-19 CNS
IGROV1 ovarian = test system: IGROV1 ovarian
T-47D breast = test system: T-47D breast
HCT-116 colon = test system: HCT-116 colon
SN12C renal = test system: SN12C renal
HCC-2998 colon = test system: HCC-2998 colon
UACC-257 melanoma = test system: UACC-257 melanoma
NCI-H226 lung = test system: NCI-H226 lung
UO-31 renal = test system: UO-31 renal
786-0 renal = test system: 786-0 renal
SF-268 CNS = test system: SF-268 CNS
OVCAR-8 ovarian = test system: OVCAR-8 ovarian
KM12 colon = test system: KM12 colon
MDA-MB-435 = test system: MDA-MB-435
SK-MEL-2 melanoma = test system: SK-MEL-2 melanoma
UACC-62 melanoma = test system: UACC-62 melanoma
HT29 colon = test system: HT29 colon
K-562 leukemia = test system: K-562 leukemia
A498 renal = test system: A498 renal
SK-MEL-28 melanoma = test system: SK-MEL-28 melanoma

CC(=O)O[C@H]1C(=O)[C@@]2(C)C(C(OC(=O)c3ccccc3)[C@]3(O)CC(OC(=O)[C@H](OC(=O)CCC(=O)O)C(NC(=O)c4ccccc4)c4ccccc4)C(C)=C1C3(C)C)C1(OC(C)=O)COC1C[C@@H]2O (some centres undefined)
TGI (A549 NSCLC): > 100 µM
TGI (MCF7 breast): > 100 µM
TGI (SW-620 colon): > 100 µM
TGI (CAKI-1 renal): > 100 µM
TGI (RPMI-8226 leukemia): < 0.01 µM
TGI (LOX IMVI melanoma): > 100 µM
GI50 (HOP-62 NSCLC): < 0.0175 µM and 0.0835 µM
TGI (HOP-62 NSCLC): > 100 µM
GI50 (DU-145 prostate): < 0.01 µM and 0.0319 µM
TGI (DU-145 prostate): 0.0715 µM and 0.193 µM
GI50 (MDA-MB-231 breast): < 0.0171 µM and 0.0486 µM
TGI (CCRF-CEM leukemia): 0.658 µM and 1.57 µM
TGI (NCI-H522 lung): < 0.01 µM
TGI (HOP-92 NSCLC): > 78.8 µM and 91.8 µM
TGI (MOLT-4 leukemia): 1.05 µM
TGI (COLO 205 colon): < 0.0142 µM and 0.04 µM
TGI (HS 578T breast): 3.1 µM and 1.57 µM
TGI (OVCAR-4 ovarian): > 100 µM
TGI (SK-MEL-5 melanoma): 13.9 µM and 18 µM
GI50 (MALME-3M melanoma): < 0.01 µM and 0.0659 µM
TGI (MALME-3M melanoma): > 100 µM
GI50 (ACHN renal): 0.19 µM and 0.821 µM
TGI (ACHN renal): > 100 µM
GI50 (NCI/ADR-RES ovarian): 8.73 µM and 17.7 µM
TGI (NCI/ADR-RES ovarian): 61.9 µM and > 72.3 µM
TGI (NCI-H460 lung): > 100 µM
GI50 (OVCAR-5 ovarian): < 0.0146 µM and 0.0324 µM
TGI (OVCAR-5 ovarian): > 36.1 µM
TGI (HL-60(TB) leukemia): < 0.0136 µM
GI50 (M14 melanoma): < 0.0111 µM and 0.0224 µM
TGI (M14 melanoma): 41.2 µM and > 100 µM
TGI (HCT-15 colon): > 100 µM
TGI (SF-539 CNS): < 0.0196 µM and 0.0584 µM
TGI (U251 CNS): > 100 µM
TGI (PC-3 prostate): 0.0512 µM
GI50 (SF-295 CNS): 0.0471 µM and 0.18 µM
TGI (SF-295 CNS): 2.27 µM
TGI (NCI-H23 lung): > 100 µM
TGI (MDA-N): < 0.01 µM
TGI (TK-10 renal): 97.1 µM and 15.4 µM
GI50 (EKVX NSCLC): 0.121 µM and 0.875 µM
TGI (EKVX NSCLC): > 100 µM
TGI (OVCAR-3 ovarian): 1.76 µM and 0.459 µM
TGI (SR leukemia): < 0.01 µM and 0.0173 µM
GI50 (SK-OV-3 ovarian): < 0.0159 µM and 0.0343 µM
TGI (SK-OV-3 ovarian): > 100 µM
GI50 (RXF 393 renal): < 0.0249 µM and 0.0528 µM
TGI (RXF 393 renal): 2.79 µM
GI50 (SNB-75 CNS): 0.022 µM and 0.076 µM
TGI (SNB-19 CNS): > 100 µM
TGI (IGROV1 ovarian): > 67.7 µM and 50 µM
TGI (T-47D breast): > 100 µM
TGI (HCT-116 colon): > 100 µM
GI50 (SN12C renal): < 0.01 µM and 0.0287 µM
TGI (SN12C renal): > 100 µM
TGI (HCC-2998 colon): > 100 µM and 20.3 µM
GI50 (UACC-257 melanoma): < 0.01 µM and 0.0295 µM
TGI (UACC-257 melanoma): > 100 µM
TGI (NCI-H226 lung): > 100 µM
GI50 (UO-31 renal): 14 µM and 61.4 µM
TGI (UO-31 renal): > 100 µM
GI50 (786-0 renal): 0.0303 µM and 0.108 µM
TGI (786-0 renal): > 100 µM
TGI (SF-268 CNS): > 100 µM
GI50 (OVCAR-8 ovarian): 0.0159 µM and 0.038 µM
TGI (OVCAR-8 ovarian): > 100 µM

O=C1c2[nH]c3ccc(Br)cc3c2CCN1Cc1ccc(Cl)cc1
TGI (A549 NSCLC): 26.9 µM
TGI (MCF7 breast): 35.7 µM
TGI (SW-620 colon): 34.8 µM
TGI (CAKI-1 renal): 34.4 µM
TGI (LOX IMVI melanoma): 25.9 µM
TGI (HOP-62 NSCLC): 26.4 µM
TGI (DU-145 prostate): 28.3 µM
TGI (MDA-MB-231 breast): 28.7 µM
TGI (CCRF-CEM leukemia): > 100 µM
TGI (NCI-H522 lung): 37.9 µM
TGI (HOP-92 NSCLC): 33.4 µM
TGI (COLO 205 colon): 34.5 µM
TGI (HS 578T breast): 43.3 µM
TGI (OVCAR-4 ovarian): 34.3 µM
TGI (SK-MEL-5 melanoma): 23 µM
TGI (MALME-3M melanoma): 33.7 µM
TGI (ACHN renal): 22.7 µM
TGI (NCI/ADR-RES ovarian): 40.6 µM
TGI (KM12 colon): 36.1 µM
TGI (OVCAR-5 ovarian): 26.2 µM
TGI (HL-60(TB) leukemia): 99.1 µM
TGI (M14 melanoma): 28.5 µM
TGI (HCT-15 colon): 18.1 µM
TGI (MDA-MB-435): 28.6 µM
TGI (SF-539 CNS): 25.5 µM
TGI (U251 CNS): 26.8 µM
TGI (PC-3 prostate): 19.4 µM
TGI (SF-295 CNS): 26.2 µM
TGI (SK-MEL-2 melanoma): 47.4 µM
TGI (NCI-H23 lung): 32.3 µM
TGI (MDA-N): 30.7 µM
TGI (UACC-62 melanoma): 28.2 µM
TGI (HT29 colon): > 100 µM
TGI (TK-10 renal): 27.7 µM
TGI (EKVX NSCLC): > 100 µM
TGI (OVCAR-3 ovarian): 28.5 µM
TGI (K-562 leukemia): > 100 µM
TGI (SR leukemia): 44.5 µM
TGI (RXF 393 renal): 36.4 µM
TGI (SNB-75 CNS): 38.5 µM
TGI (SNB-19 CNS): 32.7 µM
TGI (IGROV1 ovarian): 35.5 µM
TGI (T-47D breast): 29.2 µM
TGI (HCT-116 colon): 23.5 µM
TGI (SN12C renal): 39.9 µM
TGI (HCC-2998 colon): 28.3 µM
TGI (UACC-257 melanoma): 30 µM
TGI (UO-31 renal): 31.1 µM
TGI (786-0 renal): 24.1 µM
TGI (A498 renal): 34.1 µM
TGI (SF-268 CNS): 33.2 µM
TGI (SK-MEL-28 melanoma): 31.6 µM
TGI (OVCAR-8 ovarian): 48.5 µM
